From patent publication US10562914B2, “Imidazoles as histone demethylase inhibitors” (Istituto Europeo di Oncologia S.r.l., priority 2016, dated 2020)
pIC50: −log10 of the molar value. Where a name gives a salt, the structure may show the parent alone.

Legend:
[1] = target: T1, human recombinant KDM1A/CoREST protein (Homo sapiens, UniProt O60341); assay: Assay of enzyme inhibition of KDM1A (LSD1), TR-FRET; assay type: biochemical; conditions: 0.25 nM KDM1A/CoREST, 50 nM H3K4 monomethylated peptide, 20 min at RT
T1 construct: made in house; host or cells: E. coli
Procedure: 2.1 Assay of Enzyme Inhibition of KDM1A (LSD1)
The intensity of the light emission is proportional to the level of biotinylated reaction product. The complex of human recombinant KDM1A/CoREST protein was produced in E. coli as separate proteins and co-purified as previously described.
Demethylase reaction was started by the addition of 50 nM histone H3K4 monomethylated.
The resulting mixture was incubated in the dark for 1 h at RT. Then, TR-FRET signal was read by a fluorimeter (Infinite® F200, Tecan, Männedorf, Swirzerland) (Excitation 320 nm, Emission 665 nm and 620 nm, delay time 50 μs, window time 100 μs).
The inhibitor concentrations ranged from 0.025 to 500 μM (serial 1:3 dilutions). The IC50 was calculated using GraphPad Software.

[2] = tested on: Human leukemia MV4-11 cells; assay: Cell growth, CellTiter-Fluor viability assay, MV4-11; assay type: cell-based; conditions: 48 h incubation, read-out: IC50 against human leukemia MV4-11 cells
Text: (§1) CellTiter-Flor® (Promega) is as a nonlytic, single-reagent-addition fluorescence assay that measures the relative number of living cells in a culture population after experimental manipulation. The CellTiter-Fluor™ Cell Viability Assay measures the conserved and constitutive protease activity within live cells and therefore acts as a marker for cell viability.
(§2) Human leukemia MV4-11 cells, (obtained from the Deutsche Sammlung von Mikroorganismen und Zellkulturen, ACC 102) or NB4 cells, (obtained from the Deutsche Sammlung von Mikroorganismen und Zellkulturen) in exponential growth, were incubated for 48 h with different concentrations of the inhibitors. After 48 h a volume of CellTiter-Fluor® Reagent equal to one fifth of volume of cell culture medium was added. The content was mixed and incubates for at least 90 min at 37° C. degree to obtain a stable signal. The fluorescence was recorded using an excitation wavelength of 360 nm and an emission at 535 nm. The IC50 was calculated using GraphPad Software.

[3] = tested on: human leukemia NB4 cells; assay: Cell growth, CellTiter-Fluor viability assay, NB4; assay type: cell-based; conditions: NB-4, 48 h incubation, read-out: IC50 against human leukemia NB4 cells
Text: as §1, §2

pIC50 [1]	pIC50 [2]	pIC50 [3]	Compound
> 7.00	> 5.00	> 4.70	CCc1cnc(-c2cc3sccc3n2C)n1CCOc1cccc(OC2CCNCC2)c1 [Example 19, 5-[5-ethyl-1-[2-[3-(4-piperidyloxy)phenoxy]ethyl]imidazol-2-yl]-4-methyl-thieno[3,2-b]pyrrole]
> 7.00	> 5.00	> 4.70	CCc1cnc(-c2cc3sccc3n2C)n1CCOc1ccc(OC2CCNCC2)cc1 [Example 21, 5-[5-ethyl-1-[2-[4-(4-piperidyloxy)phenoxy]ethyl]imidazol-2-yl]-4-methyl-thieno[3,2-b]pyrrole]
> 7.00	> 5.00	> 4.70	CCc1cn(CCOc2ccc(OCC3CCNC3)cc2)c(-c2cc3sccc3n2C)n1 (stereo not drawn) [Example 22, 5-[4-ethyl-1-[2-[4-(pyrrolidin-3-ylmethoxy)phenoxy]ethyl]imidazol-2-yl]-4-methyl-thieno[3,2-b]pyrrole hydrochloride]
> 7.00	> 5.00	> 4.70	CCc1cn(CCOc2ccc(OCC3CCNCC3)cc2)c(-c2cc3sccc3n2C)n1 [Example 23, 5-[4-ethyl-1-[2-[4-(4-piperidylmethoxy)phenoxy]ethyl]imidazol-2-yl]-4-methyl-thieno[3,2-b]pyrrole hydrochloride]
> 7.00	> 5.00	> 4.70	CCc1cnc(-c2cc3sccc3n2C)n1CCOc1ccc(OCC2CCNCC2)cc1 [Example 24, 5-[5-ethyl-1-[2-[4-(4-piperidylmethoxy)phenoxy]ethyl]imidazol-2-yl]-4-methyl-thieno[3,2-b]pyrrole trifluoroacetate]
> 7.00	> 5.00	> 4.70	CCc1cnc(-c2cc3sccc3n2C)n1CCOc1ccc(OC2CCCNCC2)cc1 (stereo not drawn) [Example 26, 5-[1-[2-[4-(azepan-4-yloxy)phenoxy]ethyl]-5-ethyl-imidazol-2-yl]-4-methyl-thieno[3,2-b]pyrrole trifluoroacetate]
> 7.00	> 5.00	> 4.70	CCc1cnc(-c2cc3sccc3n2C)n1CCCc1ccc(OC2CCNCC2)cc1 [Example 28, 5-[5-ethyl-1-[3-[4-(4-piperidyloxy)phenyl]propyl]imidazol-2-yl]-4-methyl-thieno[3,2-b]pyrrole hydrochloride]
> 7.00	> 5.00	> 4.70	Cn1c(-c2ncc(C3CCC3)n2CCOc2ccc(OC3CCNCC3)cc2)cc2sccc21 [Example 30, 5-[5-cyclobutyl-1-[2-[4-(4-piperidyloxy)phenoxy]ethyl]imidazol-2-yl]-4-methyl-thieno[3,2-b]pyrrole hydrochloride]
> 7.00	> 5.00	> 4.70	CCc1c(-c2ccccc2)nc(-c2cc3sccc3n2C)n1CCOc1ccc(OC2CCNCC2)cc1 [Example 31, 5-[5-ethyl-4-phenyl-1-[2-[4-(4-piperidyloxy)phenoxy]ethyl]imidazol-2-yl]-4-methyl-thieno[3,2-b]pyrrole]
> 7.00	> 5.00	> 4.70	CCc1c(-c2ccccc2)nc(-c2cc3sccc3n2C)n1CCOc1cccc(OC2CCNCC2)c1 [Example 32, 5-[5-ethyl-4-phenyl-1-[2-[3-(4-piperidyloxy)phenoxy]ethyl]imidazol-2-yl]-4-methyl-thieno[3,2-b]pyrrole]
> 7.00	> 5.00	> 4.70	CCc1nc(-c2cc3sccc3n2C)n(CCOc2cccc(OC3CCNCC3)c2)c1-c1ccccc1 [Example 33, 5-[4-ethyl-5-phenyl-1-[2-[3-(4-piperidyloxy)phenoxy]ethyl]imidazol-2-yl]-4-methyl-thieno[3,2-b]pyrrole]
